Experimental data taken from patent US10463782B2, “Patient-based parameter generation systems for medical injection procedures” (BAYER HEALTHCARE LLC, priority 2006, dated 2019).

Experiment: cardiovascular CTA (Siemens Sensation 64) contrast enhancement, generated protocol vs standard biphasic protocol
Format: in vivo, patients
Description: It was expected that left and right heart contrast enhancement would be more consistent across subjects using the cardiac protocol generation system/method of the present invention as compared to typical methods of establishing protocol parameters. To evaluate the level and consistency of enhancement, cardiac CE CT data from a pilot study were analyzed. Two anatomic regions of interest (the descending aorta and the right ventricle) were identified in each subject's scan (reconstructed at 60% RR interval) via a semi-automatic segmentation algorithm. For every set of axial slices acquired at a single time point, the mean enhancement within each of the regions was computed, yielding time enhancement curves. The influence of a per-patient, contrast injection protocol having a dilution phase on right heart enhancement during cardiac CTA was also studied. Sufficient enhancement for assessment of the right heart allows for the assessment of right heart pathology. […] Standard Errors in the other groups were: uni-phasic (+/−39 HU)), bi-phasic (+/−39 HU), and fixed dilution phase (+/−28 HU). […] Left Heart Enhancement averaged 325 HU+/−80
A study of 20 patients undergoing cardiovascular CTA (Siemens Sensation 64) using injection protocols generated using the system/method of the present invention (Iopimidol 370) and 19 control subjects with a standard biphasic protocol (Iopimidol 370 contrast volume=scan duration×5 ml/s, followed by a 40 ml saline flush) was made. All values of the time enhancement curves were pooled across subjects, and the two groups were compared via unpaired t-tests. The mean enhancements for the protocols generated by the present invention and the biphasic protocols were 357±69 HU and 323±64 HU, respectively (p=10^−8). The right ventricle mean enhancements were 318±85 HU and 212±96 HU (p=10^−21).

In the case of C[C@H](O)C(=O)Nc1c(I)c(C(=O)NC(CO)CO)c(I)c(C(=O)NC(CO)CO)c1I [Iopimidol 370, Iopimidol], the “right ventricle mean enhancement (FIG. 35C)” value (protocols generated by the present invention, 20 patients) is reported as 318±85 HU, the “mean enhancement (descending aorta, FIG. 35B)” value (protocols generated by the present invention, 20 patients, time enhancement curve values pooled across subjects) is reported as 357±69 HU and the “mean enhancement (descending aorta, FIG. 35B)” value (standard biphasic protocol (contrast volume = scan duration x 5 ml/s, then 40 ml saline flush), 19 control subjects) is reported as 323±64 HU. For the same molecule, the “right ventricle mean enhancement (FIG. 35C)” value (standard biphasic protocol, 19 control subjects) was 212±96 HU.
